The source of these data is publication PMC11069587, “An Elastin-like Polypeptide-fusion peptide targeting capsid-tegument interface as an antiviral against cytomegalovirus infection” (Scientific Reports, 2024).

Where no end group is shown, it is not given here.

In one series the test system is uninfected MEFs. As to the kind of experiment: Cell viability of uninfected MEFs, trypan blue exclusion. The conditions noted are these: 80 μM, mock-infected, 3 days.
The subject of a further series is HIV. Details: method as in PMID 8312047. The conditions noted are these: cited from earlier work.
The test system of a further series is Hepatitis B and D. Set-up: method as in PMID 20007265. The conditions noted are these: cited from earlier work.
The nature of series [1]: Organ biodistribution by ex vivo whole-organ fluorescence imaging in mice. Set-up: species or system mouse (Balb/c). The conditions noted are these: rhodamine-labeled, subcutaneous, 4 h post-injection, ex vivo IVIS imaging, female mice n = 4. How it is done:
(§1) Plasma pharmacokinetics (a) were determined for 72 h after injection. In a separate cohort of mice (females, n = 4 per group), major organ biodistribution was determined 4 h after injection by ex vivo whole-organ fluorescence imaging (b and c). The standard deviations were plotted as error bars.
(§2) Blood samples were collected from the tail vein at different time points and centrifuged to collect plasma. […] For the biodistribution, a separate cohort of mice (female, n = 4 per group) were euthanized four hours after the injection with proteins or saline control, and the brain, spleen, liver, lungs, kidneys, and heart were harvested and assessed by ex-vivo whole organ imaging using the In Vivo Imaging System (IVIS, Perkin Elmer). […] To determine pharmacokinetic parameters, plasma concentrations during the clearance phase (from the peak of the plasma concentration curve) were fit using a two-compartment pharmacokinetic model as described previously using GraphPad Prism[32].

Series [2] is described as follows: Plasma pharmacokinetics of rhodamine-labeled constructs in mice. Type of series: in vivo, mouse (Balb/c). How it is done: as §1, §2

Experimental for uninfected MEFs: Cells were harvested at 3 dpi, and cell viability was assessed by trypan blue exclusion assay for both uninfected and infected groups. The standard error of the mean from three different experiments were plotted as error bars.
MEFs were plated in 24-well tissue-culture plates and grown to confluency in triplicates. […] At 3 dpi, the CMC (carboxymethylcellulose) + DMEM overlay was removed. The cells were then harvested by trypsinization to determine the cell viability using trypan blue exclusion with a TC20 automated cell counter (BioRad Laboratories, Hercules, CA, USA) following the manufacturer’s protocol. […] The cells were washed twice with PBS and overlayed with CMC + DMEM and incubated for 3 days. […] The percentage of cell survival was plotted for different treatment groups, and data were analyzed by one-way ANOVA using Tukey post hoc test.

As for `Nc1nc(O)c2ncn(COC(CO)CO)c2n1` [GCV, ganciclovir], in the series with uninfected MEFs, the “cell viability of uninfected MEFs” value is on record as “not affected”.

Turning to Enfuvirtide, the IC50 result with HIV is reported as “nanomolar range”.

Turning to Myrcludex B, the “concentrations at which efficacy was demonstrated” value with Hepatitis B and D was “picomolar concentrations”.

As for NKLVYTGRL [P10], in series [1], the “accumulation in the kidneys” value was “much lower levels than ELP-P10” and the “accumulation in the liver” value is on record as “much lower levels than ELP-P10”. Also, the “Area Under Curve” value in series [2] (500 nmol/Kg subcutaneous, female mice n = 4 per group, plasma fluorescence over 72 h) was 1185 ± 383 µM·h. The “time after which clearance from plasma began” value in series [2] (subcutaneous, mouse plasma) amounted to 2 h.
